# Test results: patent US20200361871A1 (Enterprise Therapeutics Ltd., priority 2018, published 2020)
# pEC50: −log10 of the molar value.
# Target: human TMEM16A (TMEM16Aabc variant) (Homo sapiens, UniProt Q5XXA6, DEL476-501, form not given)
# Assay: Automated whole-cell patch clamp (Qpatch) TMEM16A potentiator assay in FRT cells stably expressing human TMEM16A
# Format: cell-based
# Settings: for % Potentiation @ 3.33 μM Avg: 3.33 μM solution of test compound, percentage increase of baseline TMEM16A current; for pEC50: calculated EC50, Qpatch TMEM16A current at +70 mV
# From the text: FIG. 1 is an example trace from a whole-cell patch clamp (Qpatch) TMEM16A potentiator assay as used in Biological Example 95 and illustrates the methodology used in the assay. In FIG. 1: S is Saline; V is Vehicle; #1 is Test Compound concentration #1; #2 is Test Compound concentration 2; #3 is Test Compound concentration 3; #4 is Test Compound concentration 4; #5 is Test Compound concentration #5; and R is Reference. The arrow in column V represents the baseline current, IBL. The arrows in each of the columns #1, #2, #3, #4, #5 and R represent I#[1], I#[2], I#[3], I#[4], I#[5] and I[Ref], which are the peak currents during the incubation periods for test compounds concentrations #1 to #5 and the Reference.
# Fisher rat thyroid (FRT) cells stably expressing human TMEM16A (TMEM16Aabc variant; Dr Luis Galietta, Insituto Giannina, Italy) were cultured in T-75 flasks in Hams F-12 media with Coon's modification (Sigma) supplemented with 10% (v/v) foetal bovine serum, penicillin-streptomycin (10,000 U/mL/10000 μg/mL), G-418 (750 μg/mL), L-glutamine (2 mM) and sodium bicarbonate solution (7.5% v/v). At ˜90% confluence cells were harvested for experiments by detachment with a 2:1 (v/v) mixture of Detachin (BMS Biotechnology) and 0.25% (w/v) trypsin-EDTA. Cells were diluted to a density of 3.5-4.5×10^6 cells/mL with media consisting of CHO-S-SFM II (Sigma), 25 mM HEPES (Sigma) and Soy bean trypsin inhibitor (Sigma).
# FRT-TMEM16A cells were whole-cell patch clamped using an automated planar patch clamp system (Qpatch, Sophion). Briefly, once high resistance (GOhm) seals were established between the cells and the planar recording array the patch was ruptured using suction pulses to establish the whole-cell recording configuration of the patch clamp technique. The assay employed the following solutions (all reagents Sigma): Intracellular solution (mM): N-methyl-D-glucamine 130, CaCl2 18.2, MgCl2 1, HEPES 10, EGTA 10, BAPTA 20, Mg-ATP 2, pH 7.25, 325 mOsm with sucrose.
# Extracellular solution (mM): N-methyl-D-glucamine 130, CaCl2 2, MgCl2 1, HEPES 10, pH 7.3, 320 mOsm with sucrose.
# The intracellular solution buffers intracellular calcium at levels required to give ˜20% activation of the maximal TMEM16A mediated current (EC20 for calcium ions). Cells were voltage clamped at a holding potential of −70 mV and a combined voltage step (to +70 mV)/ramp (−90 my to +90 mV) was applied at 0.05 Hz. After a period of current stabilisation test compounds, solubilised in 100% (v/v) DMSO and subsequently diluted into extracellular solution, were applied to generate a cumulative concentration response curve. Each concentration of test compound was incubated for 5 minutes before addition of the next concentration. After the final concentration was tested a supramaximal concentration of either a known active positive modulator or the TMEM16A inhibitor, CaCCinhA01 (Del La Fuente et al, 2008) was added to define the upper and lower limits of the assay.
# Compound activity was quantified by measuring the increase in current upon compound addition and expressing this as a percentage increase of baseline TMEM16A current level. Percentage increases in current were determined for each concentration and the data plotted as a function of concentration using either the Qpatch software or Graphpad Prism v6.05 providing the concentration which gave 50% of its maximal effect (EC50) and maximum efficacy (percentage of baseline increase).
# In FIG. 1, IBL equals baseline current, I[#1] equals the peak current during test compound concentration 1 incubation period and so on.
# Peak TMEM16A current at +70 mV was plotted as a function of time over the assay period. Baseline current (IBL) was measured after a period of stabilisation. The increase in current for each compound addition was determined by taking the peak current during the incubation period and subtracting the current from the previous recording period and then expressing this as a percentage of the baseline current. […]
# human TMEM16A (TMEM16Aabc variant), sequence (Q5XXA6 with tags, fused parts or gaps DEL476-501): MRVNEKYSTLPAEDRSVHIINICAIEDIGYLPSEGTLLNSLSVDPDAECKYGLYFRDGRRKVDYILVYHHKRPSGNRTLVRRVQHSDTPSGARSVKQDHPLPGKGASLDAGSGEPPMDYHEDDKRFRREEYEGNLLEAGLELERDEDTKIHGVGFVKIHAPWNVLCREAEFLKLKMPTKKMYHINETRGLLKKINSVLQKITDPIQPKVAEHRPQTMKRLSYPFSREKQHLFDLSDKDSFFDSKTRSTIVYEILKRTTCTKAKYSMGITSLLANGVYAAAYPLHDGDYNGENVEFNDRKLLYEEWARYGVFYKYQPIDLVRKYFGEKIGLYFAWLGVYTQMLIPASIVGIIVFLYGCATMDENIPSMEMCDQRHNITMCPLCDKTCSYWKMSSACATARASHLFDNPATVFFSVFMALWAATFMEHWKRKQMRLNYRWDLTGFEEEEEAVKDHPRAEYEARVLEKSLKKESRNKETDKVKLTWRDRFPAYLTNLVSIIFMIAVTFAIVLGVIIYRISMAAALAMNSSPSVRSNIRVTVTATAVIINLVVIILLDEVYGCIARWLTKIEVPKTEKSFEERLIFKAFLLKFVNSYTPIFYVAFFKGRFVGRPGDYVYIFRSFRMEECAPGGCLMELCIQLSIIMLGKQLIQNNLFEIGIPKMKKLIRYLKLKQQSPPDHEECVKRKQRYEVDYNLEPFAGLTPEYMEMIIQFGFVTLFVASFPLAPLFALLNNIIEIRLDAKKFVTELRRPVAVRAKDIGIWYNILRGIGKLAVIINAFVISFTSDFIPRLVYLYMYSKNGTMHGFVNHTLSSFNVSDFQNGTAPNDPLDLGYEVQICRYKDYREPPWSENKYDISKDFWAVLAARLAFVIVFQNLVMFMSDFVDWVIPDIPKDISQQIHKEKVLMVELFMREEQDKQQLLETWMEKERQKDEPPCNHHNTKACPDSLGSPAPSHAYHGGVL
Compound,% Potentiation @ 3.33 μM Avg,pEC50
"CC(C)(C)NC(=O)c1cc(NC(=O)[C@@H]2CCc3ccccc32)ccn1 (single isomer, unassigned) [Example 21b, N-tert-Butyl-4-[[(1R)-indane-1-carbonyl]amino]pyridine-2-carboxamide or N-tert-Butyl-4-[[(1S)-indane-1-carbonyl]amino]pyridine-2-carboxamide]",164%,5.97
"CC(C)(C)NC(=O)c1cc(NC(=O)Cc2cccc(CC#N)c2)ccn1 [Example 68, N-tert-Butyl-4-[[2-[3-(cyanomethyl)phenyl]acetyl]amino]pyridine-2-carboxamide]",39%,–
"CC(C)(C)NC(=O)c1cc(F)cc(NC(=O)Cc2cc(Cl)ccc2O)c1 [Example 18, N-tert-Butyl-3-[[2-(5-chloro-2-hydroxy-phenyl)acetyl]amino]-5-fluoro-benzamide]",405%,6.35
"Cn1nc(C(C)(C)C)cc1C(=O)Nc1ccnc(C(=O)NC(C)(C)C#N)c1 [Example 83.14, 4-[(5-tert-Butyl-2-methyl-pyrazole-3-carbonyl)amino]-N-(1-cyano-1-methyl-ethyl)pyridine-2-carboxamide]",70%,–
"N#CC1(NC(=O)c2cc(NC(=O)Cc3ccccc3Cl)ccn2)CC1 [Example 30.7, 4-[[2-(2-Chlorophenyl)acetyl]amino]-N-(1-cyanocyclopropyl)pyridine-2-carboxamide]",124%,6.47
"CC(C)(C)NC(=O)c1cc(NC(=O)Cc2ccccc2Br)ccn1 [Example 23.13, 4-[[2-(2-bromophenyl)acetyl]amino]-N-tert-butyl-pyridine-2-carboxamide]",169%,6.24
"CC1(NC(=O)c2cccc(NC(=O)Cc3cc(Cl)ccc3O)c2)CCC1 [Example 7.10, 3-[[2-(5-Chloro-2-hydroxy-phenyl)acetyl]amino]-N-(1-methylcyclobutyl)benzamide]",218%,6.44
"CC(C)(C)NC(=O)c1cc(NC(=O)Cc2cc(F)ccc2Cl)ccn1 [Example 40.1, N-tert-Butyl-4-[[2-(2-chloro-5-fluoro-phenyl)acetyl]amino] pyridine-2-carboxamide]",91%,6.06
"O=C(Cc1cc(F)ccc1F)Nc1ccnc(C(=O)NC23CCC(F)(C2)C3)c1 [Example 77.1, 4-[[2-(2,5-Difluorophenyl)acetyl]amino]-N-(4-fluoro-1-bicyclo[2.1.1]hexanyl) pyridine-2-carboxamide]",151%,6.27
"CC(C)(C)NC(=O)c1cc(NC(=O)Cc2ccc(Cl)c(Cl)c2)ccn1 [Example 5.8, N-tert-Butyl-4-[[2-(3,4-dichlorophenyl)acetyl]amino]pyridine-2-carboxamide]",116%,6.34
"CC1(NC(=O)c2cc(NC(=O)Cc3ccccc3Cl)ccn2)CC1 [Example 30.8, 4-[[2-(2-Chlorophenyl)acetyl]amino]-N-(1-methylcyclopropyl)pyridine-2-carboxamide]",121%,6.15
"CC1(NC(=O)c2cc(NC(=O)Cc3cc(F)ccc3O)ccn2)CCC1 [Example 48, 4-[[2-(5-Fluoro-2-hydroxy-phenyl)acetyl]amino]-N-(1-methylcyclobutyl)pyridine-2-carboxamide]",195%,7.00
"C#CC(C)(C)NC(=O)c1cc(NC(=O)Cc2c(C)nn(C(C)C)c2C)ccn1 [Example 79.1, N-(1,1-Dimethylprop-2-ynyl)-4-[[2-(1-isopropyl-3,5-dimethyl-pyrazol-4-yl)acetyl]amino]pyridine-2-carboxamide]",45%,–
"CC(C)(C#N)NC(=O)c1cc(NC(=O)C2CCCCC2)ccn1 [Example 83.2, N-(1-Cyano-1-methyl-ethyl)-4-(cyclohexanecarbonylamino)pyridine-2-carboxamide]",41%,–
"CC(C)(NC(=O)c1cc(NC(=O)Cc2cc(Cl)ccc2O)ccn1)c1ccccc1 [Example 94, 4-[[2-(5-Chloro-2-hydroxy-phenyl)acetyl]amino]-N-(1-methyl-1-phenyl-ethyl) pyridine-2-carboxamide]",516%,6.47
"CC(C)Cc1cc(C(=O)Nc2ccnc(C(=O)NC(C)(C)C#N)c2)on1 [Example 83.9, N-[2-[(1-Cyano-1-methyl-ethyl)carbamoyl]-4-pyridyl]-3-isobutyl-isoxazole-5-carboxamide]",18%,–
"N#CC1(NC(=O)c2cccc(NC(=O)Cc3cc(Cl)ccc3O)c2)CCOCC1 [Example 80, 3-[[2-(5-Chloro-2-hydroxy-phenyl)acetyl]amino]-N-(4-cyanotetrahydropyran-4-yl) benzamide]",130%,–
"COCCC(C)(C)NC(=O)c1cc(NC(=O)Cc2cc(Cl)ccc2O)ccn1 [Example 1.4, 4-[[2-(5-Chloro-2-hydroxy-phenyl)acetyl]amino]-N-(3-methoxy-1,1-dimethyl-propyl)pyridine-2-carboxamide]",195%,6.40
"COCC(C)(C#N)NC(=O)c1cc(NC(=O)Cc2cc(Cl)ccc2O)ccn1 (stereo not shown) [Example 35.27, 4-[[2-(5-Chloro-2-hydroxy-phenyl)acetyl]amino]-N-(1-cyano-2-methoxy-1-methyl-ethyl)pyridine-2-carboxamide]",496%,6.48
"C[C@](C#N)(CO)NC(=O)c1cc(NC(=O)Cc2cc(Cl)ccc2O)ccn1 (single isomer, unassigned) [Example 46b, 4-[[2-(5-Chloro-2-hydroxy-phenyl)acetyl]amino]-N-[(1S)-1-cyano-2-hydroxy-1-methyl-ethyl]pyridine-2-carboxamide or 4-[[2-(5-chloro-2-hydroxy-phenyl)acetyl]amino]-N-[(1R)-1-cyano-2-hydroxy-1-methyl-ethyl]pyridine-2-carboxamide]",215%,–
"N#CC1(NC(=O)c2cc(NC(=O)Cc3cc(Cl)ccc3O)ccn2)CCOCC1 [Example 31, 4-[[2-(5-Chloro-2-hydroxy-phenyl)acetyl]amino]-N-(4-cyanotetrahydropyran-4-yl)pyridine-2-carboxamide]",223%,6.92
"Cc1noc(-c2ccccc2C(=O)Nc2ccnc(C(=O)NC(C)(C)C#N)c2)n1 [Example 83.23, N-(1-Cyano-1-methyl-ethyl)-4-[[2-(3-methyl-1,2,4-oxadiazol-5-yl)benzoyl]amino]pyridine-2-carboxamide]",-11%,–
"CC(C#N)(CO)NC(=O)c1cc(NC(=O)Cc2ccccc2F)ccn1 (stereo not shown) [Example 60.1, N-(1-Cyano-2-hydroxy-1-methyl-ethyl)-4-[[2-(2-fluorophenyl)acetyl]amino]pyridine-2-carboxamide]",60%,–
"C#CC(C)(C)NC(=O)c1cc(NC(=O)Cc2ccncc2Cl)ccn1 [Example 22.3, 4-[[2-(3-Chloro-4-pyridyl)acetyl]amino]-N-(1,1-dimethylprop-2-ynyl)pyridine-2-carboxamide]",132%,–
"O=C(Cc1cc(Cl)ccc1O)Nc1ccnc(C(=O)NCc2ccccn2)c1 [Example 32.3, 4-[[2-(5-Chloro-2-hydroxy-phenyl)acetyl]amino]-N-(2-pyridylmethyl)pyridine-2-carboxamide]",288%,6.54
